Patent US10265294B2, “Compositions and methods for treating epithelial cancer” (YALE UNIVERSITY, priority 2016, dated 2019)

Columns and labels:
[1] = system: OCSC2 (chemoresistant CD44+/MyD88+ ovarian cancer stem cell clone); experiment: Real-time measurement of cell number/cell death and IC50, OCSC2 clone; assay type: cell-based, human; settings: OCSC2, 24 hours (FIG. 1G)
Procedure: CD44+/MyD88+ ovarian cancer stem cell clones (OCSC1 and OCSC2) and CD44−/MyD88− ovarian cancer cells (OCC1 and OCC2) were isolated from either tumor tissue or ascites obtained from patients diagnosed with stage III/IV serous ovarian cancer and propagated (Alvero, et al., 2009, Cell Cycle 8:158-166; Chefetz, et al., 2013, Cell Cycle 12:511-521). The epithelial nature of the isolated cells was determined by immunostaining for Ck18. Purity of the cultures based on CD44 expression by flow cytometry and chemoresistance were routinely tested. Stable expression of nuclear-restricted red fluorescent (in OCSCs) or green fluorescent proteins (in OCCs) was performed by transduction using NUCLIGHT® Red or Green Lentivirus Reagent (Essen Bioscience, Ann Arbor, Mich.). Spheroids were formed from OCSCs by culturing in ultra-low attachment multi-well plates (Corning, Inc., Corning, N.Y.).
(§1) Effect of each compound on cell morphology, growth, and viability was assessed using a kinetic live cell imaging system (Incucyte, Essen Bioscience). Proliferation was calculated as previously described (Alvero, et al., 2011, Mol. Cancer Ther. 10:1385-1393) using metrics from either confluence or fluorescent count from nuclear-restricted RFP or GFP. Cell death was quantified; similarly CELLTOX® Green Cytotoxicity Assay (Promega, Madison, Wis.). IC50 was calculated as described using GraphPad Prism (GraphPad Software Inc., LaJolla, Calif.).
A panel of four different SBP subfamilies with cytotoxic activity against chemoresistant ovarian cancer stem cells were tested for efficacy in inducing ovarian cancer stem cell death. […] The efficacy of each analog was determined based on its IC50.
TRX-E-002 exists as a racemic mixture comprised of two enantiomers, enantiomer A (TRX-E-002-1) and enantiomer B (TRX-E-002-2). Thus, the enantiomers were separated and assessed separately. […]

[2] = system: OCC1 (CD44-/MyD88- ovarian cancer cells); experiment: IC50 against chemosensitive ovarian cancer cells OCC1; assay type: cell-based, human; settings: read-out: IC50 (percentage of viable cells)
Procedure: CD44+/MyD88+ ovarian cancer stem cell clones (OCSC1 and OCSC2) and CD44−/MyD88− ovarian cancer cells (OCC1 and OCC2) were isolated from either tumor tissue or ascites obtained from patients diagnosed with stage III/IV serous ovarian cancer and propagated (Alvero, et al., 2009, Cell Cycle 8:158-166; Chefetz, et al., 2013, Cell Cycle 12:511-521). The epithelial nature of the isolated cells was determined by immunostaining for Ck18. Purity of the cultures based on CD44 expression by flow cytometry and chemoresistance were routinely tested. […]
as §1
Once the efficacy of TRX-E-002-1 against chemoresistant OCSC was established, its activity against two clones of chemosensitive ovarian cancer cells (OCC1 and OCC2) was determined.

ERK = experiment: Phosphokinase array / Western blot for phosphorylated ERK in OCSCs; assay type: cell-based, human; settings: compared to controls; from 2 h up to 24 h post-treatment
Procedure: SDS-PAGE and Western blots were performed using 20 μg of total protein lysate as described in Kamsteeg, et al., 2003, Oncogene 22:2611-2620. Antibodies used were: mouse anti-phospho ERK (Santa Cruz Biotechnology, Inc., Dallas, Tex.); rabbit anti-phospho c-Jun, rabbit anti c-Jun, rabbit anti-ERK, rabbit anti-cleaved caspase 3 all from Cell Signaling Technology, Danvers, Mass.; and mouse anti-GAPDH (Sigma-Aldrich).
In order to elucidate the early pathways responsible for the sustained cytotoxic effect observed with TRX-E-002-1, a phosphokinase array was performed. The phosphokinase array detected relative phosphorylation levels of 43 different kinases involved in major signal transduction pathways.
The western blot results also validated the decrease in p-ERK in cells treated with TRX-E-002-1. […] The effect on the phosphorylation status of the kinases (upregulation of p-cJun and downregulation of p-ERK) was observed as early as 2 h post-treatment and maintained up to 24 h (FIG. 4A). The phosphorylation levels of c-Jun and ERK correlate with the differential ability of the two doses of TRX-E-002-1 to induce a sustained cytotoxic effect. […] This correlates with the ability of this dose of TRX-E-002-1 to maintain the upregulation of p-cJun and downregulation of p-ERK even when the compound is removed (FIG. 4B). […]

caspase-3/7 = experiment: Caspase Glo assay, caspase-3/7; assay type: cell-based, human; settings: 0.245 μM; at 16 and 24 h post treatment
Procedure: (§2) Total protein was extracted and measured as described in Kamsteeg, et al., 2003, Oncogene 22:2611-2620. Activity of caspase 3/7 and caspase 9 was quantified using Caspase Glo assay (Promega).
(§3) The activities of caspase-3/7 and caspase-9 were assessed at 2, 4, 6, 8, 16, and 24 hours post-treatment with TRX-E-002-1.

caspase-9 = experiment: Caspase Glo assay, caspase-9; assay type: cell-based, human; settings: 0.245 μM; at 16 and 24 h post treatment
Procedure: as §2, §3

[3] = system: i.p. tumors of mCherry+OCSC1-F2 ovarian cancer cells; experiment: Recurrent disease xenograft, maintenance treatment after Paclitaxel; assay type: in vivo
From the text: The Yale University Institutional Animal Care and Use Committee approved all in vivo studies described. Intra-peritoneal tumors were established in athymic nude mice using 4×10^6 mCherry+OCSC1-F2 ovarian cancer cells (Craveiro, et al., 2013, Cancer Med. 2:751-762). Injection of cancer cells is designated as day 0 and treatment commenced between day 3-5. Establishment of i.p. tumors was confirmed by live imaging (In-Vivo FX PRO, Bruker Corp., Billerica, Mass.) prior to treatment. TRX-E-002-1 was prepared in 20% Captisol or Dexsolve and administered daily at 50 mg/kg or 100 mg/kg. Paclitaxel was given at 12 mg/kg q3d and Cisplatin at 5 mg/kg weekly. All treatments were given i.p. Tumor growth was monitored q3d by live imaging and response to treatment was assessed using ROI area.
Although the standard of care for ovarian cancer patients (platinum plus taxane) is effective initially, most patients develop recurrent disease. Recurrence is the major cause of mortality in ovarian cancer patients, and thus approaches that can prevent recurrence are critical to improve patient survival. As described elsewhere herein, a unique advantage of the xenograft model is the recapitulation of recurrent disease that is typically observed in patients with ovarian cancer. […] Upon recurrence, tumors acquire resistance and become unresponsive to a second-round of Paclitaxel regimen, as observed in ovarian cancer patients. Thus, the model allows one to assess the value of novel compounds in preventing recurrence when given as maintenance treatment.
Thus mice were given Paclitaxel as initial treatment. […] After the 4th dose of Paclitaxel mice were re-randomized into the different maintenance groups. Here the maintenance protocol consisted of continued treatment with Paclitaxel, or maintenance with TRX-E-002-1 (100 mg/kg), or maintenance with Vehicle control.

SMILES: COc1cc(C2COc3c(ccc(O)c3C)C2c2ccc(O)cc2)cc(OC)c1O (single isomer, unassigned) [TRX-E-002-1]
- IC50 [1]: 47 nM
- IC50 [2]: 68 nM
- levels of phosphorylated-ERK (p-ERK) (ERK): lower levels
- caspase-3/7 activity (caspase-3/7): significant increase
- caspase-9 activity (caspase-9): significant increase
- tolerability of the maintenance schedule ([3]; TRX-E-002-1 100 mg/kg daily i.p. maintenance): no signs of disease or morbidity requiring euthanasia
- tumor progression during maintenance treatment ([3]; after 4th dose of Paclitaxel, TRX-E-002-1 100 mg/kg daily i.p. or continued Paclitaxel): effectively retarded tumor proliferation
- tumor burden (ROI area) versus group maintained with Paclitaxel ([3]; by day 35, TRX-E-002-1 100 mg/kg maintenance): significantly less
- gross examination of residual disease ([3]; maintenance groups): microscopic metastasis
- tumor weights at end point compared to control ([3]; maintenance groups): significantly reduced
